Patent US10301317B2, “Inhibitors of ERK and methods of use” (Kura Oncology, Inc., priority 2013, dated 2019)

How the values were obtained:
Format in all cases: cell-based
[1] = tested on: phospho-p90 RSK (RSK1 Thr359/Ser363) in A375 (Braf V600E) cells; assay: Phospho-p90 RSK ELISA using A375 (Braf V600E) cells; conditions: Homo sapiens, A-375, 2 hours compound treatment, read-out: Cellular Phospho-p90RSK IC50
[2] = tested on: A375 cells; assay: Tumor cell line proliferation assay (CellTiter Glo), A375; conditions: Homo sapiens, A-375, 96 h, read-out: A375 (V599E) Cell Proliferation IC50
[3] = tested on: H358 (Kras, G12C) cells; assay: Tumor cell line proliferation assay (CellTiter Glo), H358; conditions: Homo sapiens, NCI-H358, 96 hours

Structure (SMILES) | IC50 [1] [nM] | IC50 [2] [nM] | IC50 [3] [nM]
Cc1cc(-c2n[nH]c3cc4c(cc23)CN([C@@H]2CCCN(C)C2)C(=O)N4)ccn1 [Example 33] | > 1000 | > 1000 | > 1000
Cc1cc(-c2n[nH]c3cc4c(cc23)CN(C2CCNCC2)C(=O)N4)ccn1 [Example 34] | > 1000 | > 1000 | > 1000
Cc1cc(-c2n[nH]c3cc4c(cc23)CN([C@H](C)c2cccc(Cl)c2)C(=O)N4)ccn1 [Example 35] | ≤ 250 | 250 to 1000 | ≤ 250
COc1ccc(-c2n[nH]c3cc4c(cc23)CN(Cc2ccc(F)c(Cl)c2)C(=O)N4)cn1 [Example 36] | 250 to 1000 | 250 to 1000 | 250 to 1000
COc1ncc(-c2n[nH]c3cc4c(cc23)CN(Cc2ccc(F)c(Cl)c2)C(=O)N4)cn1 [Example 37] | ≤ 250 | 250 to 1000 | 250 to 1000
Cc1cc(-c2n[nH]c3cc4c(cc23)CN(Cc2ccc(C#N)cc2)C(=O)N4)ccn1 [Example 39] | 250 to 1000 | > 1000 | 250 to 1000
Cn1cc(-c2n[nH]c3cc4c(cc23)CN(Cc2ccc(F)c(Cl)c2)C(=O)N4)ccc1=O [Example 41] | ≤ 250 | 250 to 1000 | 250 to 1000
Cc1cc(-c2n[nH]c3cc4c(cc23)CN(Cc2cscn2)C(=O)N4)ccn1 [Example 47] | 250 to 1000 | > 1000 | > 1000
Cc1cc(-c2n[nH]c3cc4c(cc23)CN([C@@H]2CCCOC2)C(=O)N4)ccn1 [Example 49] | 250 to 1000 | > 1000 | > 1000
Cc1cc(-c2n[nH]c3cc4c(cc23)CN([C@@H]2CCCN(Cc3ccccc3)C2)C(=O)N4)ccn1 [Example 63] | ≤ 250 | ≤ 250 | ≤ 250
CCC(c1ccccc1)c1cc2cc3c(-c4ccnc(C)c4)n[nH]c3cc2[nH]c1=O (stereo not drawn) [Example 64] | ≤ 250 | ≤ 250 | ≤ 250
COc1ncc(-c2n[nH]c3cc4c(cc23)CN(Cc2cccc(Cl)c2)C(=O)N4)cn1 [Example 68] | ≤ 250 | ≤ 250 | 250 to 1000
Cc1cc(-c2n[nH]c3cc4c(cc23)CN(Cc2cccc(Cl)c2)C(=O)N4)cc(C)n1 [Example 77] | ≤ 250 | ≤ 250 | 250 to 1000
Cc1cc(-c2n[nH]c3cc4[nH]c(=O)c([C@H](C)c5ccccc5)cc4cc23)ccn1 [Example 84] | ≤ 250 | ≤ 250 | ≤ 250
COc1ncc(-c2n[nH]c3cc4c(cc23)CN(Cc2ccc(F)cc2F)C(=O)N4)cn1 [Example 99] | ≤ 250 | 250 to 1000 | 250 to 1000
COc1ncc(-c2n[nH]c3cc4c(cc23)CN([C@@H]2CCCN(Cc3ccccc3F)C2)C(=O)N4)cn1 [Example 101] | ≤ 250 | ≤ 250 | ≤ 250
COc1ncc(-c2n[nH]c3cc4c(cc23)CN([C@@H]2CCCN(Cc3c(F)cccc3F)C2)C(=O)N4)cn1 [Example 102] | ≤ 250 | ≤ 250 | ≤ 250
COc1ncc(-c2n[nH]c3cc4c(cc23)CN([C@@H]2CCCN(Cc3c(F)cccc3OC)C2)C(=O)N4)cn1 [Example 103] | ≤ 250 | ≤ 250 | ≤ 250

Structure (SMILES) | IC50 [1] [nM] | IC50 [2] [nM] | IC50 [3] [nM]
O=C1Nc2cc3[nH]nc(-c4ccnnc4)c3cc2CN1[C@@H]1CCCN(Cc2ccccc2)C1 [Example 120] | ≤ 250 | 250 to 1000 | 250 to 1000
O=C1Nc2cc3[nH]nc(-c4cncnc4)c3cc2CN1Cc1cccc(Cl)c1 [Example 123] | ≤ 250 | 250 to 1000 | 250 to 1000
Cc1cc(-c2n[nH]c3cc4c(cc23)CN([C@@H]2CCCN(Cc3ccc(F)cn3)C2)C(=O)N4)ccn1 [Example 132] | ≤ 250 | 250 to 1000 | 250 to 1000
Cc1cc(-c2n[nH]c3cc4c(cc23)CN([C@@H]2CCCN(Cc3ccc(F)c(Cl)c3)C2)C(=O)N4)ccn1 [Example 134] | ≤ 250 | ≤ 250 | 250 to 1000
Cc1cc(-c2n[nH]c3cc4c(cc23)CN([C@@H]2CCCN(CCC(C)(C)C)C2)C(=O)N4)ccn1 [Example 136] | 250 to 1000 | 250 to 1000 | > 1000
Cc1cc(-c2n[nH]c3cc4c(cc23)CN([C@@H]2CCCN(CC3CCCC3)C2)C(=O)N4)ccn1 [Example 138] | 250 to 1000 | 250 to 1000 | > 1000
Cc1cc(-c2n[nH]c3cc4c(cc23)CN([C@@H]2CCCN(Cc3cc(C)no3)C2)C(=O)N4)ccn1 [Example 139] | 250 to 1000 | 250 to 1000 | 250 to 1000
Cc1cc(-c2n[nH]c3cc4c(cc23)CN([C@@H]2CCCN(Cc3csc(C)n3)C2)C(=O)N4)ccn1 [Example 140] | ≤ 250 | 250 to 1000 | 250 to 1000
Cc1cc(-c2n[nH]c3cc4c(cc23)CN([C@@H]2CCCN(CC3CCCCC3)C2)C(=O)N4)ccn1 [Example 141] | ≤ 250 | 250 to 1000 | 250 to 1000
Cc1cc(-c2n[nH]c3cc4c(cc23)CN([C@@H]2CCCN(Cc3c(F)cccc3F)C2)C(=O)N4)ccn1 [Example 143] | ≤ 250 | ≤ 250 | ≤ 250
COc1cccc(F)c1CN1CCC[C@@H](N2Cc3cc4c(-c5ccnc(C)c5)n[nH]c4cc3NC2=O)C1 [Example 144] | ≤ 250 | ≤ 250 | ≤ 250
Cc1cc(-c2n[nH]c3cc4c(cc23)CN([C@@H]2CCN(Cc3ccccc3)C2)C(=O)N4)ccn1 [Example 146] | ≤ 250 | ≤ 250 | ≤ 250
Cc1cc(-c2n[nH]c3cc4c(cc23)CN([C@@H]2CCN(Cc3c(F)cccc3F)C2)C(=O)N4)ccn1 [Example 147] | ≤ 250 | 250 to 1000 | ≤ 250
Cc1cc(-c2n[nH]c3cc4c(cc23)CN([C@@H]2CCCN(Cc3cccnc3C(F)(F)F)C2)C(=O)N4)ccn1 [Example 161] | ≤ 250 | 250 to 1000 | 250 to 1000
Cc1cc(-c2n[nH]c3cc4c(cc23)CN([C@@H]2CCCN(Cc3cc(F)cc(F)c3)C2)C(=O)N4)ccn1 [Example 163] | ≤ 250 | 250 to 1000 | 250 to 1000
[2H]c1c([2H])c([2H])c(C([2H])([2H])N2CCC[C@@H](N3Cc4cc5c(-c6ccnc(C)c6)n[nH]c5cc4NC3=O)C2)c([2H])c1[2H] [Example 165] | ≤ 250 | ≤ 250 | ≤ 250
Cc1cc(-c2n[nH]c3cc4c(cc23)CN([C@@H]2CCCN(c3cccc(Cl)c3)C2)C(=O)N4)ccn1 [Example 174] | ≤ 250 | 250 to 1000 | ≤ 250

More lines, now with the values ahead:

IC50 [1] [nM] | IC50 [2] [nM] | IC50 [3] [nM] | Structure (SMILES)
≤ 250 | 250 to 1000 | 250 to 1000 | Cc1cc(-c2n[nH]c3cc4c(cc23)CN([C@@H]2CCCN(CCC(F)(F)F)C2)C(=O)N4)ccn1 [Example 178]
≤ 250 | 250 to 1000 | 250 to 1000 | Cc1cc(-c2n[nH]c3cc4c(cc23)CN([C@@H]2CCCN(C(C)c3ccc(F)cc3)C2)C(=O)N4)ccn1 (stereo partly drawn) [Example 179]
≤ 250 | 250 to 1000 | 250 to 1000 | Cc1cc(-c2n[nH]c3cc4c(cc23)CN([C@@H]2CCCN(C(C)c3cccc(Cl)c3)C2)C(=O)N4)ccn1 (stereo partly drawn) [Example 180]
≤ 250 | ≤ 250 | ≤ 250 | Cc1cc(-c2n[nH]c3cc4c(cc23)CC(C(C)c2cccc(Cl)c2)C(=O)N4)ccn1 (stereo not drawn) [Example 181]
≤ 250 | ≤ 250 | 250 to 1000 | Cc1cc(-c2n[nH]c3cc4c(cc23)CN([C@@H]2CCCN(Cc3ccc(F)c(F)c3)C2)C(=O)N4)ccn1 [Example 190]
≤ 250 | 250 to 1000 | 250 to 1000 | Cc1cc(-c2n[nH]c3cc4c(cc23)CN([C@@H]2CCCN(CC(F)(F)F)C2)C(=O)N4)ccn1 [Example 193]
≤ 250 | ≤ 250 | ≤ 250 | Cc1cc(-c2n[nH]c3cc4c(cc23)CN([C@@H]2CCCN(Cc3ccc(F)cc3F)C2)C(=O)N4)ccn1 [Example 196]
≤ 250 | 250 to 1000 | 250 to 1000 | Cc1cc(-c2n[nH]c3cc4c(cc23)CN([C@@H]2CCCN(c3ccc(F)cn3)C2)C(=O)N4)ccn1 [Example 199]
≤ 250 | 250 to 1000 | 250 to 1000 | Cc1cc(-c2n[nH]c3cc4c(cc23)CN(C2CN(Cc3ccccc3)CC(F)(F)C2)C(=O)N4)ccn1 (stereo not drawn) [Example 200]
> 1000 | > 1000 | > 1000 | Cc1cc(-c2n[nH]c3cc4c(cc23)CN(C2CN(CC3CCCC3)CC(F)(F)C2)C(=O)N4)ccn1 (stereo not drawn) [Example 201]
> 1000 | > 1000 | > 1000 | Cc1cc(-c2n[nH]c3cc4c(cc23)CN(C2CN(Cc3cc(F)cc(F)c3)CC(F)(F)C2)C(=O)N4)ccn1 (stereo not drawn) [Example 202]
250 to 1000 | 250 to 1000 | > 1000 | Cc1cc(-c2n[nH]c3cc4c(cc23)CN(C2CCCCC2)C(=O)N4)ccn1 [Example 204]
≤ 250 | 250 to 1000 | 250 to 1000 | Cc1cc(-c2n[nH]c3cc4c(cc23)CN(C2CCCC2)C(=O)N4)ccn1 [Example 205]
≤ 250 | ≤ 250 | ≤ 250 | Cc1cc(-c2n[nH]c3cc4c(cc23)CN([C@@H]2CCN(CC(F)(F)F)C2)C(=O)N4)ccn1 [Example 214]
250 to 1000 | 250 to 1000 | 250 to 1000 | Cc1cc(-c2n[nH]c3cc4[nH]c(=O)c(C(O)c5ccccc5)cc4cc23)ccn1 (stereo not drawn) [Example 221]
≤ 250 | 250 to 1000 | 250 to 1000 | Cc1cc(-c2n[nH]c3cc4c(cc23)CN([C@@H]2CN(CC(F)(F)F)C[C@H]2c2ccccc2)C(=O)N4)ccn1 [Example 222]
